Data on 14 compounds can be found in publication PMC6211256, “From cycloheptathiophene-3-carboxamide to oxazinone-based derivatives as allosteric HIV-1 ribonuclease H inhibitors” (Journal of Enzyme Inhibition and Medicinal Chemistry, 2018).

Each structure is given as a SMILES string. “Also recorded” adds a separate entry of the source. Where two headings read alike, the source gives them in different places.

Series [1] has as its target T1, HIV-1 RT-associated RNase H (Human immunodeficiency virus type 1 group M subtype B, UniProt P04585). Details: method as in PMID 26990134. Particulars: previously reported value; read-out: IC50, RNase H inhibition; cited from earlier work.
In series [2] the target is T2, HIV-1 RT-associated RNA dependent DNA polymerase (RDDP) (Human immunodeficiency virus type 1 group M subtype B, UniProt P04585). Details: method as in PMID 26990134. Particulars: RDDP vs RNase H; cited from earlier work.
Series [3] addresses T1, HIV-1 RT-associated RNase H. Briefly: HIV-1 DNA polymerase-independent RNase H activity determination (wt RT). The class given is biochemical. How it is done: (§1) Heterodimeric RT was expressed essentially as described[19]^,[39]. Using a BioLogic LP system (Biorad), using a combination of immobilised metal affinity (Ni-Sepharose high performance, Healthcare Lifescience) and ion exchange chromatography (Hi-trap heparin HP GE). The protein was dialysed and stored in buffer containing 50 mM Tris HCl pH 7.0, 25 mM NaCl, 1 mM EDTA, and 50% glycerol. Catalytic activities and protein concentrations were determined. Enzyme-containing fractions were pooled and aliquots were stored at −80 °C.
(§2) HIV RT-associated RNase H activity was measured as described[40] using as a control the RNase H selective inhibitor RDS1759[9], and using different amount of enzymes according to a linear range of dose-response curve: 20 ng of WT RT; 75 ng V108F RT; 50 ng Y188A RT; 30 ng W229A RT; 100 ng A502F RT.

The nature of series [4]: Cytotoxicity in MT-4 cells. Conditions: human.
Series [5] has as its target T2, HIV-1 RT-associated RNA dependent DNA polymerase (RDDP). In words: HIV-1 RNA-dependent DNA polymerase activity determination (wt RT). Type of series: biochemical. How it is done: as §1
(§3) RNA-dependent DNA polymerase (RDDP) activity was measured as described[17] using and different amounts of enzymes according to a linear range of dose-response curve: 6 ng wt RT; 19 ng V108F RT; 45 ng Y188A RT; 30 ng W229A RT; A502F RT. The Yonetani-Theorell analysis was performed as previously described[41]^,[42].

For series [6], the target named is Y188A RT (RDDP function) (Human immunodeficiency virus type 1 group M subtype B, UniProt P04585, Y775A). In words: RDDP activity of Y188A mutated RT. The class given is biochemical, HIV-1. How it is done: as §3
For series [7], the target named is V108F RT (RDDP function) (Human immunodeficiency virus type 1 group M subtype B, UniProt P04585, V695F). In words: RDDP activity of V108F mutated RT. Type of series: biochemical, HIV-1. On the procedure: as §3
Series [8] concerns the target W229A RT (RDDP function) (Human immunodeficiency virus type 1 group M subtype B, UniProt P04585, W816A). Briefly: RDDP activity of W229A mutated RT. Type of series: biochemical, HIV-1. Conditions: compared with wt RT. How it is done: as §3
The target in series [9] is A502F RT (RDDP function) (Human immunodeficiency virus type 1 group M subtype B, UniProt P04585, A1089F). In words: RDDP activity of A502F mutated RT. Particulars: compared with wt RT. Type of series: biochemical, HIV-1. How it is done:
as §3

Series [10] has as its target Y188A RT (RNase H function) (Human immunodeficiency virus type 1 group M subtype B, UniProt P04585, Y775A). Briefly: RNase H activity of Y188A mutated RT. Conditions: compared with wt RT. The class given is biochemical, HIV-1. How it is done:
as §2

The target of series [11] is V108F RT (RNase H function) (Human immunodeficiency virus type 1 group M subtype B, UniProt P04585, V695F). In words: RNase H activity of V108F mutated RT. The class given is biochemical, HIV-1. Particulars: compared with wt RT. On the procedure:
as §2

The target in series [12] is W229A RT (RNase H function) (Human immunodeficiency virus type 1 group M subtype B, UniProt P04585, W816A). In words: RNase H activity of W229A mutated RT. The class given is biochemical, HIV-1. Conditions: compared with wt RT. How it is done: as §2
Series [13] concerns the target A502F RT (RNase H function) (Human immunodeficiency virus type 1 group M subtype B, UniProt P04585, A1089F). Briefly: RNase H activity of A502F mutated RT. The class given is biochemical, HIV-1. How it is done:
as §2

Series [14] has as its target p66/p51 HIV-1 RT (Human immunodeficiency virus type 1 group M subtype B, UniProt P04585). The class given is binding. Conditions: increasing concentration of compound; 100 ng/µl HIV-1 RT.
Series [15] is described as follows: Interaction between Mg2+ and HIV-1 RT inhibitors (UV-Vis spectra with MgCl2). Type of series: physicochemical. Particulars: 100 µM compound, MgCl2 up to 1.25 mM. How it is done:
The effects of the magnesium ions were evaluated by mean of spectrophotometric method as reported, using a Ultrospec 2100 pro UV-Vis spectrophotometer (Amersham Biosciences) and Hellma quartz cuvette with 1 cm optical path. […]. Each studied compound was dissolved in DMSO to a final concentration of 10 mM and diluted in milliQ water to a final concentration of 100 µM. Each obtained solution was placed in a cuvette and the UV-Vis and the spectra were recorded between 200 and 700 nm using water milliQ (with a percentage of DMSO equal to the one present in the sample solution) as reference. Thereafter, small volumes of MgCl2 aqueous solution were added both in the sample and in the reference cuvettes to obtain a series of solutions containing increasing concentrations of MgCl2, up to 1.25 mM, carefully pipetting to mix, and the UV-Vis spectra were repeated. Each experiment was performed in triplicate.

Series [16] addresses HIV-1 RT wild type RNA-dependent DNA polymerase activity (Human immunodeficiency virus type 1 group M subtype B, UniProt P04585). In words: Yonetani-Theorell analysis of combination with EFV on RDDP function. Type of series: biochemical. Conditions: compound 22 at 10 and 30 μM with EFV. How it is done: as §3
Setting [17] is: wt RT, read-out: IC50, HIV-1 RT-associated RNase H activity.

For orientation: IC50 means the concentration that inhibits the measured activity by half. In the case of `O=C(Nc1sc2c(c1C(=O)Nc1ccccn1)CCCCC2)c1ccc(O)c(O)c1` [Compound 1], the IC50 in [1] was 0.84 µM. The “weaker potency against the polymerase activity with respect to RNase H activity” value in series [2] is 20 fold.

Regarding `Nc1sc2c(c1C(=O)Nc1ccc(Cl)cc1)CCCCC2` [Compound 5], in [3] (setting [17]), the IC50 came out at 16.5 µM.

With `NC(=O)c1c(NC(=O)c2ccc(O)c(O)c2)sc2c1CCCCC2` [Compound 6, 2-[(3,4-Dihydroxybenzoyl)amino]-5,6,7,8-tetrahydro-4H-cyclohepta[b]thiophene-3-carboxamide], the IC50 in [3] (setting [17]) was determined as 2.6 µM.

Take `COc1ccccc1C(=O)Nc1sc2c(c1C(N)=O)CCCCC2` [Compound 7, 2-[(2-Methoxybenzoyl)amino]-5,6,7,8-tetrahydro-4H-cyclohepta[b]thiophene-3-carboxamide]: the IC50 in series [3] (setting [17]) worked out at 14 µM.

Broadly, the CC50 is the concentration at which the toxic effect on the cells reaches its halfway point. Low values mean greater toxicity to the cells, high ones lower toxicity to the cells. In the case of `O=c1oc(-c2ccc(O)c(O)c2)nc2sc3c(c12)CCCCC3` [Compound 10, 2–(3,4-Dihydroxyphenyl)-6,7,8,9-tetrahydro-4H,5H-cyclohepta[4,5]thieno[2,3-d][1,3]oxazin-4-one], the IC50 was 11 µM in [3] (compound added after the RNA:DNA duplex substrate, read-out: IC50, RNase H activity, compound added after the RNA:DNA duplex substrate) and 1.1 µM in [3] (setting [17]). The compound further showed a CC50 in [4] of 27 to 300 µM.

In the case of `O=c1oc(-c2ccccc2O)nc2sc3c(c12)CCCCC3` [Compound 12, 2–(2-Hydroxyphenyl)-6,7,8,9-tetrahydro-4H,5H-cyclohepta[4,5]thieno[2,3-d][1,3]oxazin-4-one], the IC50 in [3] (setting [17]) was determined as 18.2 µM.

Consider `O=c1oc(-c2ccc(O)c(O)c2)nc2sc3c(c12)CCCC3` [Compound 20, 2–(3,4-Dihydroxyphenyl)-5,6,7,8-tetrahydro-4H-[1]benzothieno[2,3-d][1,3]oxazin-4-one], for which the IC50 in series [3] (setting [17]) worked out at 3.35 µM. This compound showed a CC50 in series [4] of 27 to 300 µM.

In the case of `O=c1oc(-c2ccc(O)c(O)c2)nc2sc3c(c12)CCC3` [Compound 21, 2–(3,4-Dihydroxyphenyl)-6,7-dihydro-4H,5H-cyclopenta[4,5]thieno[2,3-d][1,3]oxazin-4-one], the IC50 in [3] (setting [17]) was determined as 1 µM. The compound also gave a CC50 in series [4] of 27 to 300 µM.

For the compound `O=c1oc(-c2ccc(O)c(O)c2)nc2sc3ccccc3c12` [Compound 22, 2–(3,4-Dihydroxyphenyl)-4H-[1]benzothieno[2,3-d][1,3]oxazin-4-one], the IC50 in series [3] (setting [17]) was 0.53 µM; in series [5] it was 2.9 µM; in [6] it was 9.64 µM; in series [7], 10.6 µM; in [13], above 100 µM. For the same compound, the “effect of W229A substitution on inhibition of RDDP” value in series [8] is “did not significantly affect”. Also, the “effect of A502F substitution on inhibition of RDDP” value in series [9] is on record as “not significantly affecting”. In addition, the “effect of Y188A substitution on inhibition of RNase H” value in [10] was “no significant effect”. In addition, in [11], the “effect of V108F substitution on inhibition of RNase H” value is given as “no significant effect”. Further, the “effect of W229A substitution on inhibition of RNase H” value in series [12] was “did not significantly affect”. Further, in [14], the “change of RT melting temperature (Tm)” value is reported as “dose-dependent increase in the RT Tm”. In addition, the “magnesium complexation (UV-Vis spectra)” value in series [15] was “did not show any shift in the maximum of absorbance; also recorded: unable to chelate Mg^2+ ions”. The “Yonetani-Theorell: combined RDDP inhibition with EFV” value in series [16] was “kinetically mutually exclusive”. Moreover, the CC50 in [4] is 27 to 300 µM.

In turn, `O=c1oc(-c2ccc(O)c(O)c2)nc2c3c(sc12)CCCCC3` [Compound 23, 2–(3,4-Dihydroxyphenyl)-7,8,9,10-tetrahydrocyclohepta[4,5]thieno[3,2-d][1,3]oxazin-4(6H)-one] yielded a CC50 in series [4] of 27 to 300 µM.

For `O=c1oc(-c2ccc(O)c(O)c2)nc2c1sc1ccccc12` [Compound 24, 2–(3,4-Dihydroxyphenyl)-4H-[1]benzothieno[3,2-d][1,3]oxazin-4-one], the IC50 stood at 0.96 µM in series [3] (setting [17]) and 14.6 µM in series [5]. Further, in series [14], the “change of RT melting temperature (Tm)” value was “dose-dependent increase in the RT Tm”. Also, the “magnesium complexation (UV-Vis spectra)” value in series [15] is “did not show any shift in the maximum of absorbance; also recorded: unable to chelate Mg^2+ ions”. In addition, the CC50 in [4] is 27 to 300 µM.

Compound `O=c1oc(-c2ccc(O)c(O)c2)nc2c1CCCCC2` [Compound 25, 2–(3,4-Dihydroxyphenyl)-6,7,8,9-tetrahydrocyclohepta[d][1,3]oxazin-4(5H)-one] showed a cytotoxic concentration (CC50) in series [4] of 27 to 300 µM.

The compound `O=c1oc(-c2ccc(O)c(O)c2)nc2ccccc12` [Compound 26, 2–(3,4-Dihydroxyphenyl)-4H-3,1-benzoxazin-4-one] showed a CC50 in series [4] of 27 to 300 µM.

In series [4], `O=c1[nH]c(-c2ccc(O)c(O)c2)nc2ccccc12` [Compound 27, 2–(3,4-Dihydroxyphenyl)quinazolin-4(3H)-one] displayed a CC50 of 27 to 300 µM.
